Experimental data taken from patent US12404259B2, “Inhibitors of extracellular signal-regulated kinase” (GEN1E LIFESCIENCES INC., priority 2023, dated 2025).
Where two headings read alike, the source gives them in different places.

How the values were obtained:
Format in all cases: cell-based
[1] = system: immortalized human T lymphocyte Jurkat cells; assay: Cytotoxicity in cancer cell lines (CellTiter-Glo), Jurkat; settings: mean of three tests
Source text: (§1) All cells were obtained from ATCC. […] Normocin® was obtained from InvivoGen. FBS was obtained from Gibco. […] All test compounds were synthesized as described herein.

melanoma cell line A375 = assay: Cytotoxicity in cancer cell lines (CellTiter-Glo), A375; settings: Homo sapiens, A-375, A375 cells, mean of three tests
Source text: as §1

[2] = system: human pancreatic carcinoma cell line PL45; assay: Cytotoxicity in cancer cell lines (CellTiter-Glo), PL45; settings: PL45 cells, mean of three tests
Source text: as §1

[3] = system: glioblastoma cell line U87; assay: Cytotoxicity in cancer cell lines (CellTiter-Glo), U87; settings: Homo sapiens, U-87 MG, U87 cells, mean of three tests
Source text: as §1

[4] = system: melanoma cell line RPMI-7951; assay: Cytotoxicity in cancer cell lines (CellTiter-Glo), RPMI-7951; settings: Homo sapiens, RPMI-7951 cells, mean of three tests
Source text: as §1

[5] = 48 hours, read-out: Cytotoxicity EC50 at 48 hours, A375
[6] = 48 hours, read-out: Cytotoxicity EC50 at 48 hours, PL45

## O=S1(=O)C=CC(OS(=O)(=O)c2ccc(Oc3ccccc3)cc2)C1 (centres unmarked) [Compound 1, 1,1-dioxido-2,3-dihydrothiophen-3-yl 4-phenoxybenzenesulfonate]
[1]; 48 hours, read-out: Cytotoxicity EC50 at 48 hours, Jurkat
  EC50: 0.4 µM
[1]; 72 hours, read-out: Cytotoxicity EC50 at 72 hours, Jurkat
  EC50: 0.2 µM
Melanoma cell line A375; [5]
  EC50: 2.5 µM
Melanoma cell line A375; 72 hours, read-out: Cytotoxicity EC50 at 72 hours, A375
  EC50: 13 µM
[2]; [6]
  EC50: 2.1 µM
[2]; 72 hours, read-out: Cytotoxicity EC50 at 72 hours, PL45
  EC50: 0.2 µM
[3]; 48 hours, read-out: Cytotoxicity EC50 at 48 hours, U87
  EC50: 1.3 µM
[3]; 72 hours, read-out: Cytotoxicity EC50 at 72 hours, U87
  EC50: 0.9 µM
[4]; 48 hours, read-out: Cytotoxicity EC50 at 48 hours, RPMI
  EC50: 0.6 µM
[4]; 72 hours, read-out: Cytotoxicity EC50 at 72 hours, RPMI
  EC50: 0.2 µM

## O=S1(=O)C=C[C@H](OS(=O)(=O)c2ccc(Oc3ccccc3)cc2)C1 [Compound 1a, (S)-1,1-dioxido-2,3-dihydrothiophen-3-yl 4-phenoxybenzenesulfonate]
Melanoma cell line A375; [5]
  EC50: 1.3 µM
[2]; [6]
  EC50: 2.1 µM

## O=S1(=O)C=C[C@@H](OS(=O)(=O)c2ccc(Oc3ccccc3)cc2)C1 [Compound 1b, (R)-1,1-dioxido-2,3-dihydrothiophen-3-yl 4-phenoxybenzenesulfonate]
Melanoma cell line A375; [5]
  EC50: 2.5 µM
[2]; [6]
  EC50: 3 µM
